Experimental data from ChEMBL document CHEMBL1201862, “PubChem BioAssay data set” (2004).
Active and inactive are the calls of the source.

How the values were obtained:
[1] = target: Protein-tyrosine kinase 2-beta (Homo sapiens, UniProt Q14289);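 also: potency of inhibitors of PYK2 kinase phosphorylation of poly-GT substrate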
[2] = target: T1, Carboxy-terminal domain RNA polymerase II polypeptide A small phosphatase 1 (Homo sapiens, UniProt Q9GZU7); test: CTDSP1 inhibitors, concentration-response, biochemical, absorbance readout, ultra-high-throughput screen actives (AID 540297); assay type: functional
T1 sequence (Q9GZU7 whole entry): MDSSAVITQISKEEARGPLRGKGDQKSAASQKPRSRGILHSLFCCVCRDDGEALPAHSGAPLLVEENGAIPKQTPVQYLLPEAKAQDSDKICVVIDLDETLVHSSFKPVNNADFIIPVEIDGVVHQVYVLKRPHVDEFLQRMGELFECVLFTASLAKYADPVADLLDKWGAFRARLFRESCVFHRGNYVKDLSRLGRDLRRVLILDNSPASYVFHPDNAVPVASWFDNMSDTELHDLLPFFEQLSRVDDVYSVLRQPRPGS

Estrogen receptor beta [3] = target: T2, Estrogen receptor beta (Homo sapiens, UniProt Q92731); test: blockers of SRC-3 recruitment to ERβ – biochemical, ELISA, streptavidin-HRP readout, orthogonal assay, confirmation (AID 1060)
Estrogen receptor beta [4] = target: T2, Estrogen receptor beta
[5] = target: T3, Microphthalmia-associated transcription factor (Homo sapiens, UniProt O75030); test: reducers of TRPM1 reporter luminescence, concentration series – cell-based, SK-MEL-5, cherry-picked, set 3, MITF inhibitor project, dose response (AID 493073); assay type: functional;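 also: SK-MEL-5 melanoma cells with luciferase driven by the MITF target TRPM1 promoter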
T3 sequence (O75030 whole entry): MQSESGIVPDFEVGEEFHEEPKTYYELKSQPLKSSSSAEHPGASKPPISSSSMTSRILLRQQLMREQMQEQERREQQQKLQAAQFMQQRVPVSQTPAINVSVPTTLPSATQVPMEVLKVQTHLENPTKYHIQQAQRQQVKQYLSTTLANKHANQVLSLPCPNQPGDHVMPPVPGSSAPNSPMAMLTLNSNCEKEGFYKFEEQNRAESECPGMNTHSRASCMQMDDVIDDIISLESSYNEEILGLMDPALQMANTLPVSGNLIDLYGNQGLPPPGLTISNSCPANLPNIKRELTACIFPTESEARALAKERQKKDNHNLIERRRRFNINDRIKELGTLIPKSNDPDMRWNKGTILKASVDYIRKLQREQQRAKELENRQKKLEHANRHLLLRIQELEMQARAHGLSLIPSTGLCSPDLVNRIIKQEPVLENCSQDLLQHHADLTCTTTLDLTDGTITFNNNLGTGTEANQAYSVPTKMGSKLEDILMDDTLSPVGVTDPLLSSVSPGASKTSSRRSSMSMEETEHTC

[6] = target: T4, Sphingosine 1-phosphate receptor 4 (Homo sapiens, UniProt O95977); test: Fluorescence dose response cell-based high throughput screening assay for antagonists of the Sphingosine 1-Phosphate Receptor 4 (S1P4). [Related pubchem assays: 1524 (Confirmation in triplicates.), 1510 (Primary screen.)]; assay type: functional
T4 sequence (O95977 whole entry): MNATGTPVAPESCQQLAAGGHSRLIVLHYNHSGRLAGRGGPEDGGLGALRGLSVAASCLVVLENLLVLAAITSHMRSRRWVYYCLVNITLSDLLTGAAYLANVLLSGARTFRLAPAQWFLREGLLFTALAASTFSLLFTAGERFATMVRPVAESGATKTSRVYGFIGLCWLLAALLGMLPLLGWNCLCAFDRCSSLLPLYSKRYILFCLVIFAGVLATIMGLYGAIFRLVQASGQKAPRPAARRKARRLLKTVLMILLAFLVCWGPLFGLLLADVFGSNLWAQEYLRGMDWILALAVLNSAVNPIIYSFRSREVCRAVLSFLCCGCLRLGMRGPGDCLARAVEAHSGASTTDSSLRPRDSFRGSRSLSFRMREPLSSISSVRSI

[7] = target: Sphingosine 1-phosphate receptor 1 (Homo sapiens, UniProt P21453); assay type: functional;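 also: Tango beta-arrestin reporter U2OS cells stimulated with S1P near its EC80; inhibitor potency meaning antagonism of receptor activation by the natural agonist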
[8] = target: T5, Heat shock factor protein 1 (Mus musculus, UniProt P38532); test: decrease of HSF1-responsive luciferase luminescence – cell-based, NIH3T3, dose retest, confirmation (AID 2382); assay type: functional;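 also: NIH3T3 fibroblasts with HSF1-driven luciferase reporter stressed by proteasome inhibitor MG132; luminescence from HSF1-driven luciferase expression after 8 hours of MG132 stress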
T5 sequence (P38532 whole entry): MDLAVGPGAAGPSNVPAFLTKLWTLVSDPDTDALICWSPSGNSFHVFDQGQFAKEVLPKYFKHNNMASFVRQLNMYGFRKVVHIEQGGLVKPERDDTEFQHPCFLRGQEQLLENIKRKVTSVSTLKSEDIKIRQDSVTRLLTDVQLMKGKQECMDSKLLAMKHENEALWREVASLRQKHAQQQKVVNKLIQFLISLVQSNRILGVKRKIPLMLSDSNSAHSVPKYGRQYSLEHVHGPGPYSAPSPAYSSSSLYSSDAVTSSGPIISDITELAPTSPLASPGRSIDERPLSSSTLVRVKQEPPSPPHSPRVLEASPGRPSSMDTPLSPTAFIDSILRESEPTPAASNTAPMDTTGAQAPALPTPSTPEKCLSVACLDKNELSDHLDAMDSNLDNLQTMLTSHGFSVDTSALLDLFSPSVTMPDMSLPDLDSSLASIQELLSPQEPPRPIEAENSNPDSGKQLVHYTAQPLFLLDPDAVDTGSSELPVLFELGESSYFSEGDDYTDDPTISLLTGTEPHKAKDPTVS

[9] = Trypanosoma cruzi growth suppression in host cells – NIH3T3 host cells, beta-gal luminescence, confirmation (AID 2044); assay type: functional, cell-based;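 also: intracellular parasites grown in NIH/3T3 mouse fibroblasts as host cells; luminescent beta-galactosidase reporter signal from transgenic T. cruzi replicating inside host cells; inhibitors lower the luminescence signal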
[10] = NIH3T3 cell viability loss – ATP luminescence, mouse fibroblasts, counter-screen, dose response (AID 2010); assay type: functional, cell-based;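 also: cells exposed to compound for about 90 hours before reading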
cells [11] = test: cells
[12] = THP-1 cell cytotoxicity, dose response, cytotoxicity control for non-replicating M. tuberculosis project (AID 489025); assay type: functional
cells [13] = assay type: functional
[14] = Vero E6 cell cytotoxicity, dose response, cytotoxicity control for non-replicating M. tuberculosis project, secondary assay (AID 492998); assay type: functional, VeroE6; conditions: Vero C1008
INS1 = test: INS-1E survival protection against cytokine death – cell-based, luminescence, retest, dose response (AID 449756); assay type: functional; conditions: Rattus norvegicus;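 also: cell death triggered by IL-1 beta plus TNF-alpha plus IFN-gamma mixture; protective hits raise ATP signal compared with cytokine alone wells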
[15] = A cytotoxicity screen of small molecule inhibitors of the PhoP region in Salmonella typhi identified in the primary screen. [Related pubchem assays: 1850, 1864, 1985 ]; assay type: functional
[16] = viability inhibitors of stage V gametocytes – luminescence, dose response (AID 1117278); assay type: functional, cell-based;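 also: gametocytes exposed to compound for 24 hours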
[17] = viability loss in human Jurkat cells – cell-based, luminescence, cytotoxicity control for P. falciparum gametocyte viability project, dose response (AID 1117277); assay type: functional;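 also: potency reflects loss of cellular ATP meaning fewer viable cells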
[18] = target: Voltage-dependent T-type calcium channel subunit alpha-1H (Homo sapiens, UniProt O95180); assay type: functional;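 also: channel activity triggered by adding a high calcium stimulation buffer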
SUMO-activating enzyme [19] = target: T6, SUMO-activating enzyme (Homo sapiens, UniProt Q9UBT2); test: blockers of SAE1/SAE2–UBC9 SUMO transfer – biochemical, HTRF, uHTS, primary screen (AID 2006); assay type: protein-complex assay
SUMO-activating enzyme [20] = target: T6, SUMO-activating enzyme; test: blockers of UBC9-mediated SUMO conjugation – biochemical, AlphaScreen, SUMOylation inhibitor project, confirmation (AID 2018); assay type: functional
[21] = target: T7, Mannose-6-phosphate isomerase (Homo sapiens, UniProt P34949); test: MPI inhibition at elevated mannose 6-phosphate – biochemical, fluorescence intensity, high mannose 6-phosphate, primary screen (AID 1220)
T7 sequence (P34949 whole entry): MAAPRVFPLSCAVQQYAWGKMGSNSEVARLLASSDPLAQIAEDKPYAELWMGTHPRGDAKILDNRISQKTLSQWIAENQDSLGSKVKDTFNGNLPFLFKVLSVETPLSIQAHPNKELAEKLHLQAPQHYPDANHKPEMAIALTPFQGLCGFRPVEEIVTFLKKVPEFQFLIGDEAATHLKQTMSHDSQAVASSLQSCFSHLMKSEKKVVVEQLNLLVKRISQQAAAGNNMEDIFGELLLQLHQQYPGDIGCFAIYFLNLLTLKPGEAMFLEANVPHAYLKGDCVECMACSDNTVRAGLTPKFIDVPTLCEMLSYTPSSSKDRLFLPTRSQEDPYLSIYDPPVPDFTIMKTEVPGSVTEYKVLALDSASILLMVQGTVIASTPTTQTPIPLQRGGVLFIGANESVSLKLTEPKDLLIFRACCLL

[22] = target: T7, Mannose-6-phosphate isomerase; test: MPI enzyme activity inhibition – biochemical, fluorescence intensity, coupled assay, primary screen (AID 1209)
[23] = DRD fibroblast viability loss – cell-based, non-viral oncogenic, luminescence, dose response (AID 1934); assay type: functional; conditions: Homo sapiens
[24] = HEK-293T viability loss after treatment – luminescence, T-cell screen hits, cytotoxicity control for TCR NF-kB inhibitor project, dose response (AID 489026); assay type: functional, cell-based;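 also: cells exposed to compound about 14 hours before the viability readout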
BJ [25] = test: growth inhibition of engineered Ras-driven BJ cells – cell-based, alamar blue fluorescence, cherrypicked samples, dose response (AID 2631); assay type: functional; conditions: Homo sapiens;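 also: confirmatory dose-response assay in RAS-dependent BJ fibroblasts engineered with TERT, LT and ST, with cytotoxicity read by fluorescence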
BJ [26] = test: BJ-TERT-LT-ST fibroblast viability loss – cell-based, RAS-independent, luminescence, dose response (AID 1935); assay type: functional; conditions: Homo sapiens;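 also: BJ fibroblasts immortalized with TERT plus LT and ST oncogenes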
BJ [27] = test: BJ-TERT fibroblast viability loss – cell-based, RAS-independent, luminescence, dose response (AID 1933); assay type: functional; conditions: Homo sapiens
BJ [28] = test: cells; assay type: functional, cell-based; conditions: Homo sapiens
Vero = test: viability of Vero cells under compound – cytotoxicity control for flavivirus capping enzyme inhibitors (AID 588742); assay type: functional; conditions: Chlorocebus sabaeus
Cytochrome P450 2C9 = Cytochrome P450 2C9 (Homo sapiens, UniProt P11712)
[29] = viability loss in THP-1 monocytes – THP-1 cells, cytotoxicity control for Vif-APOBEC3G degradation inhibitor project, dose response (AID 1117359); assay type: functional; conditions: THP-1
Cytochrome P450 2D6 = Cytochrome P450 2D6 (Homo sapiens, UniProt P10635);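 also: CYP2D6 member of a cytochrome P450 panel assay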
Protein Tat = target: T8, Protein Tat (Human immunodeficiency virus type 1 group M subtype B (isolate HXB2)(HIV-1), UniProt P04608); assay type: functional;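 also: tat binding to TAR RNA read out by fluorescence polarization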
T8 sequence (P04608 whole entry): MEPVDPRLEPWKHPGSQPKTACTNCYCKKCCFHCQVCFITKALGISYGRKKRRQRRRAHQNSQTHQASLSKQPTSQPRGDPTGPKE

Protein-tyrosine kinase 2-beta, sequence (Q14289 whole entry, the tested form may be a part): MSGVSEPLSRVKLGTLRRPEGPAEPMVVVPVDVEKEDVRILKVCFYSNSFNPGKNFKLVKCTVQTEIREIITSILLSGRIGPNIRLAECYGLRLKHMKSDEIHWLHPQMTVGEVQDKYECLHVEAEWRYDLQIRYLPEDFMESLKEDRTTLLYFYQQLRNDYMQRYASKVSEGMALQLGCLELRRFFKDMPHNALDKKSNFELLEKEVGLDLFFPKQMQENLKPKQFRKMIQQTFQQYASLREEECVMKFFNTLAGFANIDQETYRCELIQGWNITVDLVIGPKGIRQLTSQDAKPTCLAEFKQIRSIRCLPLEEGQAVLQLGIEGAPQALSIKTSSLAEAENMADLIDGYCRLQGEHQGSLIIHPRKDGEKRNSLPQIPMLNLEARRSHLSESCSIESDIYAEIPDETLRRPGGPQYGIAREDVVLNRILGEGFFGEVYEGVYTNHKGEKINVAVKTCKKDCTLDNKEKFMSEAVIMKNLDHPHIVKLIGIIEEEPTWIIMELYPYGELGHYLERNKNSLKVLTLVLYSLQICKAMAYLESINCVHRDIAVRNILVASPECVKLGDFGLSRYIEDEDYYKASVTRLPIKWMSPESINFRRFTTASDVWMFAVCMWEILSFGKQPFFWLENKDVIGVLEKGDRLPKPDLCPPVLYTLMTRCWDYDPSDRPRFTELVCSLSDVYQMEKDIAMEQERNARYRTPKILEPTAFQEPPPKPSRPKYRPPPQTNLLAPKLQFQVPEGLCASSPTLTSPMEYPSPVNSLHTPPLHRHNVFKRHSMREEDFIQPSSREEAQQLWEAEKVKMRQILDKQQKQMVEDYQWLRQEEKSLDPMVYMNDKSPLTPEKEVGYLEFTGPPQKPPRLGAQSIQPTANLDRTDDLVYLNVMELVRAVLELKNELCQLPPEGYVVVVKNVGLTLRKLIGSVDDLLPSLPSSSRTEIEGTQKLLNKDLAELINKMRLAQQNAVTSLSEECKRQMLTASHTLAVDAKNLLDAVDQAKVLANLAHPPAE
T2 sequence (Q92731 whole entry): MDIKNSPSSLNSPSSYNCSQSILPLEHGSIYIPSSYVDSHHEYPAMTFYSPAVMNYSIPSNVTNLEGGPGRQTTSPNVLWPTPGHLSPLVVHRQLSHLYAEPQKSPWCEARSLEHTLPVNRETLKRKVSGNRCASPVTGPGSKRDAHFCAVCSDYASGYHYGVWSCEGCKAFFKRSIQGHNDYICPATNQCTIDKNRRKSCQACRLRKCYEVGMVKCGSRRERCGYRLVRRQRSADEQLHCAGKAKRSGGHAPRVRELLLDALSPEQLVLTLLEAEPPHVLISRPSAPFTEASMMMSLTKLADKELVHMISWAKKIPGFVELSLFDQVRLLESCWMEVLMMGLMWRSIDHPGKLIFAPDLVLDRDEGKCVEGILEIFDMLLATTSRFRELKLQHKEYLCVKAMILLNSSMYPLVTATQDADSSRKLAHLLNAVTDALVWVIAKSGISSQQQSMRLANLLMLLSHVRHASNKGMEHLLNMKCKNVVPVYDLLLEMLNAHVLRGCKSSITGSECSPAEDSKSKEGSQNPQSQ
Sphingosine 1-phosphate receptor 1, sequence (P21453 whole entry): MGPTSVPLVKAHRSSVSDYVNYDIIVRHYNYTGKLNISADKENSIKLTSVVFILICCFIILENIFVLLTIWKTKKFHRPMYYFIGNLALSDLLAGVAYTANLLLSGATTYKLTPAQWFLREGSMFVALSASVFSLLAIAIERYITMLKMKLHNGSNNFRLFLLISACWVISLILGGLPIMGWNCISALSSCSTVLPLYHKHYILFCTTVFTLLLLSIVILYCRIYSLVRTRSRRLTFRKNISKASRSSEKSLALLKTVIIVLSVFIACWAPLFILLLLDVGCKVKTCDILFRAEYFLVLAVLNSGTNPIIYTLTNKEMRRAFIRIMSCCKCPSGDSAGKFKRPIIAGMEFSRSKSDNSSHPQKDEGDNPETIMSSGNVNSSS
T6 sequence (Q9UBE0 whole entry): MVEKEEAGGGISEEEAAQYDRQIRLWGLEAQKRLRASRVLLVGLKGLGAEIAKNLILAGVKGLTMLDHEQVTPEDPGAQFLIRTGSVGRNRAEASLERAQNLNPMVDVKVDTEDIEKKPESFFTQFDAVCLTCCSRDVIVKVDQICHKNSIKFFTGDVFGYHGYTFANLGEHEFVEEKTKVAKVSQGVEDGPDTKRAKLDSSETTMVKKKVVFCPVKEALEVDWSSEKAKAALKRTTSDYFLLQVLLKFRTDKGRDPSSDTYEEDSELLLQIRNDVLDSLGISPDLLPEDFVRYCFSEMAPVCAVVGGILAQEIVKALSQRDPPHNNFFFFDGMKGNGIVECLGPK
T6 sequence (Q9UBT2 whole entry): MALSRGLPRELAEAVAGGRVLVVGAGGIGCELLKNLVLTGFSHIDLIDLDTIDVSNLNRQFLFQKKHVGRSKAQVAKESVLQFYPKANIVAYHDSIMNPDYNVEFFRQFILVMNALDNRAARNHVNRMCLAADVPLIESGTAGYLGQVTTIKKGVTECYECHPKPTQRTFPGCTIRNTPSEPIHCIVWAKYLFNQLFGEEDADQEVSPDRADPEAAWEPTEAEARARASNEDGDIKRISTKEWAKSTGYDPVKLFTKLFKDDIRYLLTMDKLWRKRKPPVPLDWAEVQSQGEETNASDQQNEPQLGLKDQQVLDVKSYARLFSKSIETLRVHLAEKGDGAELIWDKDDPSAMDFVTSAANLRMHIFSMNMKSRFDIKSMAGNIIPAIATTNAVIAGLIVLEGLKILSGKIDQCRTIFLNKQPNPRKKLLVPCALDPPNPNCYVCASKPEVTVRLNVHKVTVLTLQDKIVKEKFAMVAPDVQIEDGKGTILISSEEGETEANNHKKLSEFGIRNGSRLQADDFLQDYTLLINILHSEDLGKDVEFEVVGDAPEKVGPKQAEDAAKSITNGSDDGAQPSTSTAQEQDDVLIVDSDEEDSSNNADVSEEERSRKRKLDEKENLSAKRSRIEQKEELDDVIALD
Cytochrome P450 2D6, sequence (P10635 whole entry): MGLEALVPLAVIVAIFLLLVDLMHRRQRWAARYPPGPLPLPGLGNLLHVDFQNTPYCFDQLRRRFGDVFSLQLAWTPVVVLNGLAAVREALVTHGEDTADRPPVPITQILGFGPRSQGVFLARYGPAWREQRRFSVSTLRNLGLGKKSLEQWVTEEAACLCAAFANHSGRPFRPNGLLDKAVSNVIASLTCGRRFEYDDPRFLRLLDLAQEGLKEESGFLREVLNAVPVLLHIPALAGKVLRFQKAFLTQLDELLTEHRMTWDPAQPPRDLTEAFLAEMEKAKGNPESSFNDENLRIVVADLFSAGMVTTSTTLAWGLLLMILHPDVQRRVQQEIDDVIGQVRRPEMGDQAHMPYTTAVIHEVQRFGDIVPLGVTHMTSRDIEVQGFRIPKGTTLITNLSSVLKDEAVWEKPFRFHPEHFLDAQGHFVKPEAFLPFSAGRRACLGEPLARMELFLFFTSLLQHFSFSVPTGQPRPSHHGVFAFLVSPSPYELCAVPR
Cytochrome P450 2C9, sequence (P11712 whole entry): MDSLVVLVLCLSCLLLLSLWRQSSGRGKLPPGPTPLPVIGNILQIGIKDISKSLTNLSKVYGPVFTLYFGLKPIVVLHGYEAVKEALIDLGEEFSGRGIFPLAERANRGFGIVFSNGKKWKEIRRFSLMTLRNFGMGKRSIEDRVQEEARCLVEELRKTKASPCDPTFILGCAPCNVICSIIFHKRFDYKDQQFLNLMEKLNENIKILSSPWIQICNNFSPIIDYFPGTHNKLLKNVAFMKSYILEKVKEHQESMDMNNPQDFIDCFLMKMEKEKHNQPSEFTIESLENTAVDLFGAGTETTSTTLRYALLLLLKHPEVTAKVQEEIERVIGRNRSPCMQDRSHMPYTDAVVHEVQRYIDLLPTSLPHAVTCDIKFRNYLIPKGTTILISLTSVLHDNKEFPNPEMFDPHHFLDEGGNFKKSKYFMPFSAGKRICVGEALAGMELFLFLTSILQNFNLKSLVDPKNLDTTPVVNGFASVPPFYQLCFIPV

Compound: O=C(N/N=C/c1ccc2ccccc2c1)c1ccc(COc2ccc3c(c2)CCC3)o1
- IC50 [1]: > 69.5 µM (not active)
- IC50 [2]: 3.24 µM (active)

Compound: O=C(Nc1cccc2cccc(NC(=O)c3ccco3)c12)c1ccco1
- IC50 (Estrogen receptor beta [3]): > 50 µM (not active)
- IC50 (Estrogen receptor beta [4]): 15.5 µM (active)

Compound: CC(=O)Cn1ncc(Br)c(Br)c1=O
- AC50 [5]: 15.8 µM (active)
- IC50 [6]: 4.22 µM (active)
- IC50 [7]: 16.6 µM (not active)
- EC50 [8]: 12.4 µM (active)
- EC50 [9]: 1.24 µM (active)
- EC50 [10]: 0.976 µM (active)

Compound: CCN1CCN(c2ccc(S(=O)(=O)N3CCCCC3)cc2NC(=O)c2ccc([N+](=O)[O-])s2)CC1
- EC50 (cells [11]): 0.052 µM (active)
- CC50 [12]: 10.5 µM (active)
- IC50 (cells [13]): 7.51 µM (active)
- EC50 [9]: < 0.1 µM (active)
- CC50 [14]: 8.95 µM (active)
- EC50 [10]: 6.56 µM (active)
- AC50 (INS1): 3.46 µM (active)

Compound: CCOc1ccc(NC(=O)CN(C)C(=O)c2ccccc2CCc2ccccc2)cc1OCC
- EC50 [15]: > 50 µM (active)

Compound: Cc1cc(C(=O)NCCC2=CCCCC2)no1
- IC50 [16]: > 109 µM (inactive)
- IC50 [17]: > 83.3 µM (inactive)

Compound: CCCn1nnc(NC(=O)c2ccc(-c3cccc(Cl)c3)o2)n1
- IC50 [16]: > 109 µM (inactive)
- EC50 [18]: 6.81 µM (active)
- IC50 [17]: > 83.4 µM (inactive)

Compound: Cn1c2ccccc2c(=O)n2c(=O)c3ccccc3cc12
- IC50 (SUMO-activating enzyme [19]): 10.9 µM (active)
- IC50 [1]: > 69.5 µM (not active)
- IC50 (SUMO-activating enzyme [20]): 3.28 µM (active)

Compound: CCOC(=O)CNCCC(=O)c1ccc(Br)cc1
- IC50 [21]: > 50 µM (not active)
- IC50 (cells [13]): 20.4 µM (active)
- IC50 [22]: > 50 µM (not active)

Compound: Cc1ccc(-c2onc3ccc(C=O)cc23)cc1
- IC50 [1]: 30.1 µM (not active)

Compound: O=S1(=O)C=C(Sc2nc3ccccc3s2)c2ccccc21
- EC50 [23]: 3.3 µM (active)
- IC50 [6]: 0.474 µM (active)
- IC50 [24]: 60.3 µM (inactive)
- EC50 (BJ [25]): 0.13 µM (active)
- IC50 [7]: 12.6 µM (not active)
- EC50 (BJ [26]): 1.73 µM (inconclusive)
- EC50 [8]: 3.93 µM (inconclusive)
- EC50 (BJ [27]): 1.23 µM (active)
- EC50 (BJ [28]): 6.14 µM (inconclusive)
- AC50 (INS1): 3.36 µM (active)

Compound: N#Cc1c(NCCO)nc(NCc2ccccc2)c2c1CCN(Cc1ccccc1)C2
- IC50 [21]: > 50 µM (not active)
- IC50 [22]: > 50 µM (not active)

Compound: CN=c1ccc(Br)cc(C(=O)/C=C/c2ccc3c(c2)OCO3)c1O
- CC50 (Vero): > 40 µM (active)
- AC50 (Cytochrome P450 2C9): inconclusive
- CC50 [29]: > 40 µM (active)
- AC50 (Cytochrome P450 2D6): 10 µM (inconclusive)
- IC50 (Protein Tat): 40.7 µM (inconclusive)

Compound: O=C(CCC1CCCN(Cc2ccc(O)c(Cl)c2)C1)NCc1ccccc1F (stereo unspecified)
- EC50 (cells [11]): 0.077 µM (active)
- EC50 [9]: < 0.1 µM (active)
- EC50 [10]: > 60 µM (not active)

Compound: CN1CCN(CC(=O)Nc2sc3c(c2C#N)CCC3)CC1
- IC50 (Estrogen receptor beta [3]): > 50 µM (not active)
